Measured values as given in DBAASP.
≈ marks a conversion by molar mass, not a printed value. Where “and” joins values, the source holds several entries; their conditions need not be identical. Equal values may be shown once. One block for each compound: values may come before it.

Assays:
Assay in all cases: ≥ marks a high value that may be exact or a test limit, other limits are often not marked, values filed in µg/mL are converted to µM
[1] = test system: Bacillus cereus AS1.126
[2] = test system: Enterococcus faecium CGMCC 1.2334
[3] = test system: Klebsiella pneumoniae subsp. pneumoniae CGMCC 1.176
[4] = test system: Pseudomonas aeruginosa CGMCC 1.860
[5] = test system: Fusobacterium nucleatum CGMCC 1.2526
[6] = test system: Lactobacillus acidophilus CGMCC 1.1854
[7] = test system: Streptococcus salivarius CGMCC 1.2498
[8] = test system: Escherichia coli AS1.349
[9] = test system: Streptococcus mutans CGMCC 1.2500
[10] = test system: Streptococcus sanguinis CGMCC 1.2497
[11] = test system: Lactococcus lactis AS1.1690
[12] = test system: Candida albicans CMCC 98001
[13] = test system: Staphylococcus aureus AS1.72
[14] = test system: Enterococcus faecalis CGMCC 1.595
[15] = test system: Klebsiella aerogenes CGMCC 1.876
[16] = test system: Enterobacter cloacae CGMCC 1.58
[17] = test system: Pseudomonas aeruginosa ATCC 25668
[18] = test system: Escherichia coli ATCC 11775
[19] = test system: Escherichia coli
[20] = test system: Acinetobacter sp.
[21] = test system: Bacillus subtilis ATCC 6633
[22] = test system: Bacillus anthracis Sterne 34F2
[23] = test system: Burkholderia thailandensis
[24] = test system: Bacillus subtilis ATCC 9372
[25] = test system: Staphylococcus aureus ATCC 25325
[26] = test system: Enterococcus faecalis ATCC 29212
[27] = test system: Escherichia coli ATCC 35218
[28] = test system: Pseudomonas aeruginosa ATCC 27853
[29] = test system: Salmonella enterica subsp. enterica serovar Typhimurium ATCC 14028
[30] = test system: Escherichia coli ML-35
[31] = test system: Serratia marcescens ATCC 8100
[32] = test system: Staphylococcus epidermidis ATCC 12228
[33] = test system: Bacillus megaterium Bm11
[34] = test system: Escherichia coli D21
[35] = test system: Staphylococcus aureus ATCC 25923
[36] = test system: Mycobacterium tuberculosis WXY
[37] = test system: Mycobacterium tuberculosis CAS3
[38] = test system: Mycobacterium tuberculosis H37Rv
[39] = test system: Salmonella enterica serovar Typhimurium
[40] = test system: Pseudomonas aeruginosa
[41] = test system: Acinetobacter baumannii
[42] = test system: Pseudomonas aeruginosa H103
[43] = test system: Staphylococcus aureus
[44] = test system: Mycobacterium tuberculosis FYX
[45] = test system: Escherichia coli ATCC 25922
[46] = test system: Pseudomonas aeruginosa PAO1

MIC [1]: 3.12 µM (≈ 4.76 µg/mL)
MIC [2]: 7.81 µM (≈ 11.9 µg/mL)
MIC [3]: 6.25 µM (≈ 9.53 µg/mL)
MIC [4]: 6.25 µM (≈ 9.53 µg/mL)
MIC [5]: 6.25 µM (≈ 9.53 µg/mL)
MIC [6]: 6.25 µM (≈ 9.53 µg/mL)
MIC [7]: 6.25 µM (≈ 9.53 µg/mL)
MIC [8]: 6.25 µM (≈ 9.53 µg/mL)
MIC [9]: 6.25 µM (≈ 9.53 µg/mL)
MIC [10]: 6.25 µM (≈ 9.53 µg/mL)
MIC [11]: 3.12 µM (≈ 4.76 µg/mL)
MIC [12]: 6.25 µM (≈ 9.53 µg/mL)
MIC [13]: 6.25 µM (≈ 9.53 µg/mL)
MIC [14]: 7.81 µM (≈ 11.9 µg/mL)
MIC [15]: 7.81 µM (≈ 11.9 µg/mL)
MIC [16]: 7.81 µM (≈ 11.9 µg/mL)
Structure (SMILES): CC[C@H](C)[C@H](N)C(=O)N[C@@H](CCCCN)C(=O)N[C@@H](CCCCN)C(=O)N[C@H](C(=O)N[C@H](C(=O)N[C@@H](CO)C(=O)N[C@@H](CCCCN)C(=O)N[C@H](C(=O)N[C@@H](CCCCN)C(=O)N[C@@H](CCCCN)C(=O)N[C@H](C(=O)N[C@@H](CC(C)C)C(=O)N[C@@H](CCCCN)C(N)=O)C(C)C)[C@@H](C)CC)C(C)C)[C@@H](C)CC [IKKIVSKIKKVLK]

MIC [17]: 0.629 µM (≈ 1.03 µg/mL)
MIC [18]: 0.629 µM (≈ 1.03 µg/mL)
MIC [19]: 1.26 µM (≈ 2.05 µg/mL)
MIC [20]: 2.51 µM (≈ 4.1 µg/mL)
MIC [21]: 2.51 µM (≈ 4.1 µg/mL)
Structure (SMILES): CC[C@H](C)[C@H](NC(C)=O)C(=O)N[C@@H](CCCCN)C(=O)N[C@@H](Cc1c[nH]c2ccccc12)C(=O)N[C@@H](C)C(=O)NCC(=O)N[C@@H](CCCCN)C(=O)N[C@@H](Cc1c[nH]c2ccccc12)C(=O)N[C@@H](Cc1c[nH]c2ccccc12)C(=O)N[C@@H](CCCCN)C(=O)N[C@@H](CC(C)C)C(=O)N[C@@H](Cc1ccccc1)C(=O)N[C@@H](CCCCN)C(N)=O [IKWAGKWWKLFK]

Structure (SMILES): CSCC[C@H](NC(=O)[C@@H](NC(=O)[C@H](CC(N)=O)NC(C)=O)C(C)C)C(=O)N[C@H](C(=O)N[C@@H](Cc1ccc(O)cc1)C(=O)N[C@@H](Cc1c[nH]c2ccccc12)C(=O)N[C@@H](Cc1c[nH]c2ccccc12)C(=O)N[C@@H](CC(C)C)C(=O)N[C@@H](CC(=O)O)C(=O)N1CCC[C@H]1C(=O)N1CCC[C@H]1C(=O)N[C@@H](CC(C)C)C(N)=O)[C@@H](C)O [NVMTYWWLDPPL]
MIC [22]: ≥ 100 µM
MIC [23]: ≥ 50 µM
MIC [24]: ≥ 100 µM

MIC [25]: ≥ 58 µM
MIC [26]: 57 µM (≈ 79.3 µg/mL)
MIC [27]: ≥ 43.6 µM
MIC [28]: 52 µM (≈ 72.4 µg/mL)
Structure (SMILES): CC(C)[C@H](NC(=O)[C@H](Cc1cnc[nH]1)NC(=O)[C@H](C)NC(=O)[C@H](C)NC(=O)[C@H](CCCCN)NC(=O)[C@H](CCCCN)NC(=O)[C@H](Cc1ccccc1)NC(=O)[C@H](Cc1ccccc1)NC(=O)[C@H](CO)NC(=O)CNC(=O)[C@H](Cc1c[nH]c2ccccc12)NC(=O)CN)C(=O)NCC(=O)O [GWGSFFKKAAHVG]

MIC [29]: 0.125 µM (≈ 0.239 µg/mL)
MIC [30]: 1 µM (≈ 1.91 µg/mL)
MIC [31]: 4 µM (≈ 7.65 µg/mL)
MIC [32]: > 64 µM
MIC [33]: 8 µM (≈ 15.3 µg/mL)
MIC [34]: 0.5 µM (≈ 0.956 µg/mL)
Structure (SMILES): CC(C)C[C@H](NC(=O)[C@H](Cc1ccc(O)cc1)NC(=O)[C@@H]1CCCN1C(=O)[C@@H]1CCCN1C(=O)[C@H](CCCN=C(N)N)NC(=O)[C@@H]1CCCN1C(=O)[C@H](CCCN=C(N)N)NC(=O)[C@H](CCCN=C(N)N)NC(=O)[C@@H](N)CCCN=C(N)N)C(=O)N1CCC[C@H]1C(=O)N[C@@H](CCCN=C(N)N)C(=O)N1CCC[C@H]1C(=O)N[C@@H](CCCN=C(N)N)C(=O)N1CCC[C@H]1C(=O)N1CCC[C@H]1C(=O)O [RRRPRPPYLPRPRPP]

MIC [35]: 27.3 µM and 45.9 µM
MIC [36]: 13.5 µM (≈ 18.7 µg/mL)
MIC [37]: ≥ 53.8 µM
MIC [38]: 21 µM and 26.9 µM
MIC [39]: 23 µM (≈ 32 µg/mL)
MIC [19]: 64.9 µM (≈ 90.4 µg/mL)
MIC [40]: 64.9 µM (≈ 90.4 µg/mL)
MIC [41]: ≥ 45.9 µM
MIC [42]: ≥ 53.8 µM
MIC [43]: 64.9 µM (≈ 90.4 µg/mL)
MIC [44]: 26.9 µM (≈ 37.5 µg/mL)
MIC [45]: 23 µM (≈ 32 µg/mL)
MIC [46]: 91.8 µM (≈ 128 µg/mL)
Structure (SMILES): CC[C@H](C)[C@H](NC(=O)[C@H](CCCN=C(N)N)NC(=O)[C@H](CC(C)C)NC(=O)[C@H](CCC(N)=O)NC(=O)[C@@H](N)C(C)C)C(=O)N[C@@H](CCCN=C(N)N)C(=O)N[C@H](C(=O)N[C@@H](C)C(=O)N[C@H](C(=O)N[C@H](C(=O)N[C@@H](CCCN=C(N)N)C(=O)N[C@@H](C)C(N)=O)[C@@H](C)CC)C(C)C)C(C)C [VQLRIRVAVIRA]
